Reference: patent US9000029B2, “Proline sulfonamide derivatives as orexin receptor antagonists” (Actelion Pharmaceuticals Ltd., priority 2010, dated 2015)

Key:
human orexin-1 receptor = human orexin-1 receptor (Homo sapiens (Human), UniProt O43613); assay: Intracellular calcium measurements (FLIPR), antagonism of orexin-A response; assay type: cell-based; conditions: CHO cells, 3 nM orexin-A, compound incubation 10 min; read-out: IC50 Ox1
Method: (§1) In Vitro Assay: Intracellular Calcium Measurements:
(§2) Chinese hamster ovary (CHO) cells expressing the human orexin-1 receptor and the human orexin-2 receptor, respectively, are grown in culture medium (Ham F-12 with L-Glutamine) containing 300 μg/ml G418, 100 U/ml penicillin, 100 μg/ml streptomycin and 10% heat inactivated fetal calf serum (FCS). The cells are seeded at 20'000 cells/well into 384-well black clear bottom sterile plates (Greiner). The seeded plates are incubated overnight at 37° C. in 5% CO2.
(§3) Human orexin-A as an agonist is prepared as 1 mM stock solution in MeOH: water (1:1), diluted in HBSS containing 0.1% bovine serum albumin (BSA), NaHCO3: 0.375 g/l and 20 mM HEPES for use in the assay at a final concentration of 3 nM.
(§4) Antagonists are prepared as 10 mM stock solution in DMSO, then diluted in 384-well plates using DMSO followed by a transfer of the dilutions into in HBSS containing 0.1% bovine serum albumin (BSA), NaHCO3: 0.375 g/l and 20 mM HEPES. On the day of the assay, 50 μl of staining buffer (HBSS containing 1% FCS, 20 mM HEPES, NaHCO3: 0.375 g/l, 5 mM probenecid (Sigma) and 3 μM of the fluorescent calcium indicator fluo-4 AM (1 mM stock solution in DMSO, containing 10% pluronic) is added to each well. The 384-well cell-plates are incubated for 50 min at 37° C. in 5% CO2 followed by equilibration at RT for 30 min before measurement.
(§5) Within the Fluorescent Imaging Plate Reader (FLIPR Tetra, Molecular Devices), antagonists are added to the plate in a volume of 10 μl/well, incubated for 10 min or (where explicitly indicated) for 120 min and finally 10 μl/well of agonist is added. Fluorescence is measured for each well at 1 second intervals, and the height of each fluorescence peak is compared to the height of the fluorescence peak induced by 3 nM orexin-A with vehicle in place of antagonist. The IC50 value (the concentration of compound needed to inhibit 50% of the agonistic response) is determined and may be normalized using the obtained IC50 value of a on-plate reference compound. Optimized conditions were achieved by adjustment of pipetting speed and cell splitting regime. The calculated IC50 values may fluctuate depending on the daily cellular assay performance. Fluctuations of this kind are known to those skilled in the art.

human orexin-2 receptor = human orexin-2 receptor (Homo sapiens (Human), UniProt O43614); assay: as above; assay type: cell-based; conditions: CHO cells, 3 nM orexin-A, compound incubation 10 min; read-out: IC50 Ox2
Method: as §1, §2, §3, §4, §5

Sequence of human orexin-1 receptor (O43613 whole entry): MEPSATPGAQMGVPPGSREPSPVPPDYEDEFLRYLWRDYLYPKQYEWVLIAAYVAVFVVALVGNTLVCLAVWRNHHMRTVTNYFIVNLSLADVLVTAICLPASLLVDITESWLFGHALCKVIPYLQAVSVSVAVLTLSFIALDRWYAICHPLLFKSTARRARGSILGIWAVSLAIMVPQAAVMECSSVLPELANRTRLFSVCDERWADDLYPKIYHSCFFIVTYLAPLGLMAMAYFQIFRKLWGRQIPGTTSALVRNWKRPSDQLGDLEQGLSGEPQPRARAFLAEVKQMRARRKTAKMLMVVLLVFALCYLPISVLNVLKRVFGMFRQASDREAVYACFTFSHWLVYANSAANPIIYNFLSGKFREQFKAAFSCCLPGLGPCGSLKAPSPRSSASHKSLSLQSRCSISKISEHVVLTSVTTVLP
Sequence of human orexin-2 receptor (O43614 whole entry): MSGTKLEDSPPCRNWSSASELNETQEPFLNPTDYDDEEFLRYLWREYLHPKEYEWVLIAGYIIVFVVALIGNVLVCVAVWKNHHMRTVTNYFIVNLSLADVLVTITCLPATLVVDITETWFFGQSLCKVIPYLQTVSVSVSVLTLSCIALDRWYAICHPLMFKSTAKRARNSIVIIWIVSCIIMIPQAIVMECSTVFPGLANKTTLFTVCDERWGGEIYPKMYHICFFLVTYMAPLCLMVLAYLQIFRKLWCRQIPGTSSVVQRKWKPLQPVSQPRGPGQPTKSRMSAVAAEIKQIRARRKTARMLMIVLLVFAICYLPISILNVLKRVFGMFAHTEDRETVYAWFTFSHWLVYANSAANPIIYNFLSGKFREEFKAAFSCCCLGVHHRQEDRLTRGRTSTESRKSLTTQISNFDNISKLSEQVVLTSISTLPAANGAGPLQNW

Row | IC50 (human orexin-1 receptor) | IC50 (human orexin-2 receptor) | Compound
1 | 0.02 µM | 0.01 µM | CSc1cccc(NC(=O)[C@@H]2CCCN2S(=O)(=O)c2ccc(Br)s2)c1 [Example 1, (S)-1-(5-Bromo-thiophene-2-sulfonyl)-pyrrolidine-2-carboxylic acid (3-methylsulfanyl-phenyl)-amide]
2 | 0.149 µM | 0.104 µM | O=C(Nc1cccc(OC(F)(F)F)c1)[C@@H]1CCCN1S(=O)(=O)c1ccc(Br)s1 [Example 2, (S)-1-(5-Bromo-thiophene-2-sulfonyl)-pyrrolidine-2-carboxylic acid (3-trifluoromethoxy-phenyl)-amide]
3 | 0.028 µM | 0.008 µM | COc1cccc(S(=O)(=O)N2CCC[C@H]2C(=O)Nc2cccc(SC)c2)c1 [Example 3, (S)-1-(3-Methoxy-benzenesulfonyl)-pyrrolidine-2-carboxylic acid (3-methylsulfanyl-phenyl)-amide]
4 | 0.091 µM | 0.047 µM | CCCc1ccc(S(=O)(=O)N2CCC[C@H]2C(=O)Nc2cccc(SC)c2)cc1 [Example 4, (S)-1-(4-Propyl-benzenesulfonyl)-pyrrolidine-2-carboxylic acid (3-methylsulfanyl-phenyl)-amide]
5 | 0.128 µM | 0.027 µM | CSc1cccc(NC(=O)[C@@H]2CCCN2S(=O)(=O)c2ccc3c(c2)OCCN3C)c1 [Example 5, (S)-1-(4-Methyl-3,4-dihydro-2H-benzo[1,4]oxazine-7-sulfonyl)-pyrrolidine-2-carboxylic acid (3-methylsulfanyl-phenyl)-amide]
6 | 0.021 µM | 0.003 µM | COc1ccc(S(=O)(=O)N2CCC[C@H]2C(=O)Nc2cccc(SC)c2)cc1 [Example 6, (S)-1-(4-Methoxy-benzenesulfonyl)-pyrrolidine-2-carboxylic acid (3-methylsulfanyl-phenyl)-amide]
7 | 0.008 µM | 0.002 µM | CSc1cccc(NC(=O)[C@@H]2CCCN2S(=O)(=O)c2cccc(Cl)c2)c1 [Example 7, (S)-1-(3-Chloro-benzenesulfonyl)-pyrrolidine-2-carboxylic acid (3-methylsulfanyl-phenyl)-amide]
8 | 0.063 µM | 0.017 µM | CSc1cccc(NC(=O)[C@@H]2CCCN2S(=O)(=O)c2ccc(C(F)(F)F)cc2)c1 [Example 8, (S)-1-(4-Trifluoromethyl-benzenesulfonyl)-pyrrolidine-2-carboxylic acid (3-methylsulfanyl-phenyl)-amide]
9 | 0.015 µM | 0.009 µM | CSc1cccc(NC(=O)[C@@H]2CCCN2S(=O)(=O)c2ccc(Cl)cc2)c1 [Example 9, (S)-1-(4-Chloro-benzenesulfonyl)-pyrrolidine-2-carboxylic acid (3-methylsulfanyl-phenyl)-amide]
10 | 0.057 µM | 0.003 µM | COc1ccc(S(=O)(=O)N2CCC[C@H]2C(=O)Nc2cccc(SC)c2)cc1OC [Example 10, (S)-1-(3,4-Dimethoxy-benzenesulfonyl)-pyrrolidine-2-carboxylic acid (3-methylsulfanyl-phenyl)-amide]
11 | 0.007 µM | 0.002 µM | CSc1cccc(NC(=O)[C@@H]2CCCN2S(=O)(=O)c2cccc(Br)c2)c1 [Example 11, (S)-1-(3-Bromo-benzenesulfonyl)-pyrrolidine-2-carboxylic acid (3-methylsulfanyl-phenyl)-amide]
12 | 0.005 µM | 0.003 µM | CSc1cccc(NC(=O)[C@@H]2CCCN2S(=O)(=O)c2ccc(C)c(Cl)c2)c1 [Example 12, (S)-1-(3-Chloro-4-methyl-benzenesulfonyl)-pyrrolidine-2-carboxylic acid (3-methylsulfanyl-phenyl)-amide]
13 | 0.022 µM | 0.01 µM | CSc1cccc(NC(=O)[C@@H]2CCCN2S(=O)(=O)c2ccc(Br)cc2)c1 [Example 13, (S)-1-(4-Bromo-benzenesulfonyl)-pyrrolidine-2-carboxylic acid (3-methylsulfanyl-phenyl)-amide]
14 | 0.007 µM | 0.002 µM | CSc1cccc(NC(=O)[C@@H]2CCCN2S(=O)(=O)c2ccc(Cl)c(Cl)c2)c1 [Example 14, (S)-1-(3,4-Dichloro-benzenesulfonyl)-pyrrolidine-2-carboxylic acid (3-methylsulfanyl-phenyl)-amide]
15 | 0.333 µM | 0.164 µM | O=C(Nc1ccccc1)[C@@H]1CCCN1S(=O)(=O)c1ccc(Br)s1 [Example 15, (S)-1-(5-Bromo-thiophene-2-sulfonyl)-pyrrolidine-2-carboxylic acid phenylamide]
16 | 0.064 µM | 0.02 µM | COc1ccc(S(=O)(=O)N2CCC[C@H]2C(=O)Nc2cc(Cl)cc(Cl)c2)cc1 [Example 16, (S)-1-(4-Methoxy-benzenesulfonyl)-pyrrolidine-2-carboxylic acid (3,5-dichloro-phenyl)-amide]
17 | 0.055 µM | 0.009 µM | COc1ccc(S(=O)(=O)N2CCC[C@H]2C(=O)Nc2cccc(C(F)(F)F)c2)cc1 [Example 17, (S)-1-(4-Methoxy-benzenesulfonyl)-pyrrolidine-2-carboxylic acid (3-trifluoromethyl-phenyl)-amide]
18 | 0.083 µM | 0.031 µM | COc1ccc(S(=O)(=O)N2CCC[C@H]2C(=O)Nc2cccc(Cl)c2)cc1 [Example 18, (S)-1-(4-Methoxy-benzenesulfonyl)-pyrrolidine-2-carboxylic acid (3-chloro-phenyl)-amide]
19 | 0.079 µM | 0.037 µM | COc1ccc(S(=O)(=O)N2CCC[C@H]2C(=O)Nc2cccc(Br)c2)cc1 [Example 19, (S)-1-(4-Methoxy-benzenesulfonyl)-pyrrolidine-2-carboxylic acid (3-bromo-phenyl)-amide]
20 | 0.214 µM | 0.017 µM | COc1ccc(S(=O)(=O)N2CCC[C@H]2C(=O)Nc2cccc(C)c2)cc1 [Example 20, (S)-1-(4-Methoxy-benzenesulfonyl)-pyrrolidine-2-carboxylic acid m-tolylamide]
21 | 0.182 µM | 0.047 µM | COc1ccc(S(=O)(=O)N2CCC[C@H]2C(=O)Nc2cccc(OC)c2)cc1 [Example 21, (S)-1-(4-Methoxy-benzenesulfonyl)-pyrrolidine-2-carboxylic acid (3-methoxy-phenyl)-amide]
22 | 0.234 µM | 0.019 µM | COc1ccc(S(=O)(=O)N2CCC[C@H]2C(=O)Nc2cccc(N(C)C)c2)cc1 [Example 22, (S)-1-(4-Methoxy-benzenesulfonyl)-pyrrolidine-2-carboxylic acid (3-dimethylamino-phenyl)-amide]
23 | 0.174 µM | 0.029 µM | COc1ccc(S(=O)(=O)N2CCC[C@H]2C(=O)Nc2ccc(C)c(C)c2)cc1 [Example 23, (S)-1-(4-Methoxy-benzenesulfonyl)-pyrrolidine-2-carboxylic acid (3,4-dimethyl-phenyl)-amide]
24 | 0.269 µM | 0.171 µM | COc1ccc(S(=O)(=O)N2CCC[C@H]2C(=O)Nc2cccc3ccccc23)cc1 [Example 24, (S)-1-(4-Methoxy-benzenesulfonyl)-pyrrolidine-2-carboxylic acid naphthalen-1-ylamide]
25 | 0.994 µM | 0.098 µM | COc1ccc(S(=O)(=O)N2CCC[C@H]2C(=O)Nc2cccc(C#N)c2)cc1 [Example 25, (S)-1-(4-Methoxy-benzenesulfonyl)-pyrrolidine-2-carboxylic acid (3-cyano-phenyl)-amide]
26 | 0.121 µM | 0.016 µM | COc1ccc(S(=O)(=O)N2CCC[C@H]2C(=O)Nc2cc(OC)cc(OC)c2)cc1 [Example 27, (S)-1-(4-Methoxy-benzenesulfonyl)-pyrrolidine-2-carboxylic acid (3,5-dimethoxy-phenyl)-amide]
27 | 0.305 µM | 0.224 µM | COc1ccc(S(=O)(=O)N2CCC[C@H]2C(=O)Nc2cc(C)ccc2Cl)cc1 [Example 28, (S)-1-(4-Methoxy-benzenesulfonyl)-pyrrolidine-2-carboxylic acid (2-chloro-5-methyl-phenyl)-amide]
28 | 0.625 µM | 0.128 µM | COc1ccc(S(=O)(=O)N2CCC[C@H]2C(=O)Nc2cc(OC)ccc2Cl)cc1 [Example 29, (S)-1-(4-Methoxy-benzenesulfonyl)-pyrrolidine-2-carboxylic acid (2-chloro-5-methoxy-phenyl)-amide]
29 | 0.086 µM | 0.068 µM | COc1ccc(S(=O)(=O)N2CCC[C@H]2C(=O)Nc2cc(C(F)(F)F)cc(C(F)(F)F)c2)cc1 [Example 30, (S)-1-(4-Methoxy-benzenesulfonyl)-pyrrolidine-2-carboxylic acid (3,5-bis-trifluoromethyl-phenyl)-amide]
